Earlier results, collected in patent US20030162803A1, “Anhydrovinblastine for the treatment of cancer” (priority 1997, published 2003).

Conditions: triphasic elimination profile; cited from earlier work

Structure (SMILES): CC[C@]1(O)C[C@@H]2CN(CCc3c([nH]c4ccccc34)[C@@](C(=O)OC)(c3cc4c(cc3OC)N(C)[C@H]3[C@@](O)(C(=O)OC)[C@H](OC(C)=O)[C@]5(CC)C=CCN6CC[C@]43[C@@H]65)C2)C1 [Vinblastine]
- initial alpha half-life: less than 5 minutes
